The results in this text go back to patent publication US20240208957A1, “TRIAZINE DERIVATIVE AS REVERSIBLE AND IRREVERSIBLE COVALENT INHIBITORS OF PI3K” (UNIVERSITÄT BASEL, priority 2021, published 2024).

Test [1] can be described thus: Intrinsic reactivity of the inhibitors with βME measured with HPLC. The format is physicochemical. The settings on record: 1 mM inhibitor + 600 mM βME, n = 3, mean. From the text:
E˜I→EI • ii) off-target reactions with ubiquitous sulfhydryls (S) and other nucleophils present in physiologic environments such as cells and body fluids are driven by the intrinsic reactivity of the warhead that is defined by Kchem driving the conversion of S and I to form the sulfhydryl-adduct (SI) [table]

In test [2] the target is p110α (PI3Kα) (Homo sapiens, UniProt P42336). The test can be described thus: LanthaScreen determination of kinetic constants (kinact, Ki) for p110α.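 For all read-outs here: covalent inhibition constants for p110α come from LanthaScreen data, fitted globally by numerical integration in KinTek Global Kinetic Explorer software.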 Type of test: binding. Conditions: for pKi: dissociation constant of the first reversible binding, mean of 3; for kinact: read-out: kinact PI3Kα.
Sequence of p110α (PI3Kα) (P42336 whole entry): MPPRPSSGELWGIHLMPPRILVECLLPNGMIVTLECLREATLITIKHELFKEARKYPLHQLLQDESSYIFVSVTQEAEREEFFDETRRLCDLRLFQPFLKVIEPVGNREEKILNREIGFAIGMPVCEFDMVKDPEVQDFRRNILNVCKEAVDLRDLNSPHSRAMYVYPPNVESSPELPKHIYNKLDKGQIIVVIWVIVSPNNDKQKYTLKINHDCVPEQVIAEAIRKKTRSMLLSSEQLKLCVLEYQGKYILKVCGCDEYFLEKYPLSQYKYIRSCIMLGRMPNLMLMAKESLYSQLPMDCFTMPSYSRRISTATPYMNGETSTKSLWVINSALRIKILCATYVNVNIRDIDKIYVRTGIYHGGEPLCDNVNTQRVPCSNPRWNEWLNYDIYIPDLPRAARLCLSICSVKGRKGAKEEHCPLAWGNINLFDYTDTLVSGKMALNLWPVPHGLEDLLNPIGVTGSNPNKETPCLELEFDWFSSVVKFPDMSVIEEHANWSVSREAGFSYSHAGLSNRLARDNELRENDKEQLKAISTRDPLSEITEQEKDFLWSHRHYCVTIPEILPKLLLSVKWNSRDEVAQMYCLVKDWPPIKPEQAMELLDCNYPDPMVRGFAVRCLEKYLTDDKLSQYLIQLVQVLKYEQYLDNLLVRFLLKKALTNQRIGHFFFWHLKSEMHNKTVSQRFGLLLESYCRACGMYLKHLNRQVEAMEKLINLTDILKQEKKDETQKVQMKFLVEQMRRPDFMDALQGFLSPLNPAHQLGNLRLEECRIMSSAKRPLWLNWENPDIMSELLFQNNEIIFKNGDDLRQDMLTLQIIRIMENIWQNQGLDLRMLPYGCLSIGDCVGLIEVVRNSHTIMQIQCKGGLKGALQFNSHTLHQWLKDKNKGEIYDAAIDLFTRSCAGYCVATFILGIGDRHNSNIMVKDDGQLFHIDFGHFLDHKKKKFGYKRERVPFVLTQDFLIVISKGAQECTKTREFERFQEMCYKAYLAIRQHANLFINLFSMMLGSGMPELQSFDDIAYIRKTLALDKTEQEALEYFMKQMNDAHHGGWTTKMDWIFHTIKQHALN
Sequence of p110α (PI3Kα) (P27986 whole entry partner): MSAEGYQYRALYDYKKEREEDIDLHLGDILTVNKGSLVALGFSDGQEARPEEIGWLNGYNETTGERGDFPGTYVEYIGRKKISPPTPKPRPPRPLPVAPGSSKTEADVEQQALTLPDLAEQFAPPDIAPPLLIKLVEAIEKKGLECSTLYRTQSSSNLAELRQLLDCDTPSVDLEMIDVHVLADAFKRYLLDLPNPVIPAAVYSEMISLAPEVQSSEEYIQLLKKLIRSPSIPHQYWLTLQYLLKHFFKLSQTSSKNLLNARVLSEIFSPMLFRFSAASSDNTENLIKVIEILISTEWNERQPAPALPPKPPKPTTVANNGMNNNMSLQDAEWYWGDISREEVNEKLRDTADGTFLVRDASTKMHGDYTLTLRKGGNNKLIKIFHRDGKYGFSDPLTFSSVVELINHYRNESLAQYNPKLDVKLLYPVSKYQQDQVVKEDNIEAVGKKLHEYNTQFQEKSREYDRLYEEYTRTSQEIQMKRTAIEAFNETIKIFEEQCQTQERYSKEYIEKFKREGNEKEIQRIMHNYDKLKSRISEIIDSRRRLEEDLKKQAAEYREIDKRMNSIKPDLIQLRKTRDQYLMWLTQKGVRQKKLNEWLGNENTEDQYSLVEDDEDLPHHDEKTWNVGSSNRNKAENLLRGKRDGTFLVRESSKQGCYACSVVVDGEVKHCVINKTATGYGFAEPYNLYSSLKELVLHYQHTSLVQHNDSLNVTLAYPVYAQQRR
Experimental: Apparent dissociation constants of compounds [Ki(app)] for p110α were determined by LanthaScreen Technology (Life Technologies), as described in Ref.^21.
Maximum potential rate of covalent bond formation (Kinact) and dissociation constant of the first reversible binding (Ki) of compounds for p110α were determined by LanthaScreen Technology (Life Technologies). The calculation of kinetic parameters was carried out through global fitting for numerical integration by using KinTek Global Kinetic Explorer modelling software^22-27.
Test [3] has as its system pSer473 of PKB/Akt in SKOV3 cells. Put plainly: In-Cell Western cellular PI3K signaling, pSer473 of PKB/Akt in SKOV3 cells. The format is cell-based. Conditions: Homo sapiens. As to the method: Protein phosphorylation was detected as follows: pSer473 of PKB/Akt with rabbit polyclonal antibody from Cell Signaling Technology (CST) (#4058) by In-Cell Western assays, where 1.2×10^4 SKOV3 cells/well in 96-well plates were plated (Cell Carrier, PerkinElmer) for 24 hours (37° C., 5% CO2), as described in Ref.^21.

Setting [4] is: mean of 3 independent measurements, global fitting with KinTek.
[5] abbreviates: SK-OV-3, SKOV3 cells, mean of 2 or 3 independent measurements, read-out: IC50 pPKB (S473) SKOV3.
Where [6] appears, read: SK-OV-3, read-out: IC50 pPKB (S473) SKOV3.

pIC50, pKi: −log10 of the molar value. Read-outs that look alike come from different tables or passages of the source.

One may read the pKi as the negative decadic logarithm of the Ki, by convention in mol/L. By kinact is commonly meant the maximal first-order rate at which the target is inactivated. The term pIC50 denotes −log10 of the IC50, conventionally taken in molar units. `C=CC(=O)N1CCCC[C@H]1C(=O)N(C)CC(=O)N1CCN(c2nc(-c3cnc(N)nc3C(F)F)nc(N3CCOCC3)n2)CC1` [Compound 22, (S)-1-acryloyl-N-(2-(4-(4-(2-amino-4-(difluoromethyl)pyrimidin-5-yl)-6-morpholino-1,3,5-triazin-2-yl)piperazin-1-yl)-2-oxoethyl)-N-methylpiperidine-2-carboxamide]: the kchem in test [1] stood at 0.00094 M⁻¹ s⁻¹. Besides, in test [2] (PI3Kα, read-out: kinact/Ki), the kinact/KI stood at 54000 M⁻¹ s⁻¹. The molecule also gave a pKi in test [2] of 8.24. Further, the kinact in test [2] (setting [4]) was found to be 0.000309 s⁻¹. Further, in test [3] (setting [5]), the pIC50 was 7.53.
Consider `C=CC(=O)N1CCC[C@@H](C(=O)NCC(=O)N2CCN(c3nc(-c4cnc(N)nc4C(F)F)nc(N4CCOCC4)n3)CC2)C1` [Compound 16, (R)-1-acryloyl-N-(2-(4-(4-(2-amino-4-(difluoromethyl)pyrimidin-5-yl)-6-morpholino-1,3,5-triazin-2-yl)piperazin-1-yl)-2-oxoethyl)piperidine-3-carboxamide], for which, in test [1], the kchem turned out to be 0.00076 M⁻¹ s⁻¹. In addition, the kinact/KI in test [2] (PI3Kα, read-out: kinact/Ki) turned out to be 914000 M⁻¹ s⁻¹. This molecule gave a negative logarithm of the Ki (pKi) in test [2] of 8.41. Moreover, the kinact in test [2] (setting [4]) stood at 0.00356 s⁻¹. Moreover, the pIC50 in test [3] (setting [5]) was 7.56.
Taken in the same sequence, the figures for `C=CC(=O)N1CC[C@H](C(=O)N(C)CC(=O)N2CCN(c3nc(-c4cnc(N)nc4C(F)F)nc(N4CCOCC4)n3)CC2)C1` [Compound 26, (S)-1-acryloyl-N-(2-(4-(4-(2-amino-4-(difluoromethyl)pyrimidin-5-yl)-6-morpholino-1,3,5-triazin-2-yl)piperazin-1-yl)-2-oxoethyl)-N-methylpyrrolidine-3-carboxamide] were 0.0005 M⁻¹ s⁻¹, 150000 M⁻¹ s⁻¹, 8.28, 0.000789 s⁻¹ and 6.64.
The corresponding values for `C=CC(=O)N1CCCC[C@@H]1C(=O)N(C)CC(=O)N1CCN(c2nc(-c3cnc(N)nc3C(F)F)nc(N3CCOCC3)n2)CC1` [Compound 23, (R)-1-acryloyl-N-(2-(4-(4-(2-amino-4-(difluoromethyl)pyrimidin-5-yl)-6-morpholino-1,3,5-triazin-2-yl)piperazin-1-yl)-2-oxoethyl)-N-methylpiperidine-2-carboxamide] are 0.001 M⁻¹ s⁻¹, 27200 M⁻¹ s⁻¹, 8.07, 0.000231 s⁻¹ and 7.22.
Turning to `C=CC(=O)N1CC(C(=O)N(C)CC(=O)N2CCN(c3nc(-c4cnc(N)nc4C(F)F)nc(N4CCOCC4)n3)CC2)C1` [Compound 33, 1-acryloyl-N-(2-(4-(4-(2-amino-4-(difluoromethyl)pyrimidin-5-yl)-6-morpholino-1,3,5-triazin-2-yl)piperazin-1-yl)-2-oxoethyl)-N-methylazetidine-3-carboxamide], in test [1], the kchem came out at 0.00581 M⁻¹ s⁻¹. In test [2], the kinact/KI came out at 1.17e+06 M⁻¹ s⁻¹, the pKi is 8.19 and the kinact is 0.00757 s⁻¹. For the same molecule, the pIC50 in test [3] (setting [6]) is 7.26.
For the molecule `C=CC(=O)N1CC(C(=O)NCCC(=O)N2CCN(c3nc(-c4cnc(N)nc4C(F)F)nc(N4CCOCC4)n3)CC2)C1` [Compound 35, 1-acryloyl-N-(3-(4-(4-(2-amino-4-(difluoromethyl)pyrimidin-5-yl)-6-morpholino-1,3,5-triazin-2-yl)piperazin-1-yl)-3-oxopropyl)azetidine-3-carboxamide], the kchem in test [1] was 0.00662 M⁻¹ s⁻¹. Further, the kinact/KI in test [2] (PI3Kα, read-out: kinact/Ki) was 126000 M⁻¹ s⁻¹. The molecule further gave a pKi in test [2] of 7.87. Also, the kinact in test [2] (setting [4]) worked out at 0.00169 s⁻¹. Also, the pIC50 in test [3] (setting [5]) was 6.22.
The corresponding values for `C=CC(=O)N1CCC[C@H](C(=O)N(C)CC(=O)N2CCN(c3nc(-c4cnc(N)nc4C(F)F)nc(N4CCOCC4)n3)CC2)C1` [Compound 17, (S)-1-acryloyl-N-(2-(4-(4-(2-amino-4-(difluoromethyl)pyrimidin-5-yl)-6-morpholino-1,3,5-triazin-2-yl)piperazin-1-yl)-2-oxoethyl)-N-methylpiperidine-3-carboxamide] are 0.00068 M⁻¹ s⁻¹, 32700 M⁻¹ s⁻¹, 8.12, 0.000251 s⁻¹ and 7.07.
Taken in the same sequence, the figures for `C=CC(=O)N1CCC[C@H](C(=O)NCC(=O)N2CCN(c3nc(-c4cnc(N)nc4C(F)F)nc(N4CCOCC4)n3)CC2)C1` [Compound 15, (S)-1-acryloyl-N-(2-(4-(4-(2-amino-4-(difluoromethyl)pyrimidin-5-yl)-6-morpholino-1,3,5-triazin-2-yl)piperazin-1-yl)-2-oxoethyl)piperidine-3-carboxamide] were 0.00073 M⁻¹ s⁻¹, 151000 M⁻¹ s⁻¹, 8.44, 0.000547 s⁻¹ and 6.88.
The corresponding values for `C=CC(=O)N1CCC[C@H]1C(=O)NCC(=O)N1CCN(c2nc(-c3cnc(N)nc3C(F)F)nc(N3CCOCC3)n2)CC1` [Compound 28, (S)-1-acryloyl-N-(2-(4-(4-(2-amino-4-(difluoromethyl)pyrimidin-5-yl)-6-morpholino-1,3,5-triazin-2-yl)piperazin-1-yl)-2-oxoethyl)pyrrolidine-2-carboxamide] are 0.00655 M⁻¹ s⁻¹, 44500 M⁻¹ s⁻¹, 8.20, 0.000281 s⁻¹ and 6.52.
Regarding `C=CC(=O)N1CC[C@@H](C(=O)NCC(=O)N2CCN(c3nc(-c4cnc(N)nc4C(F)F)nc(N4CCOCC4)n3)CC2)C1` [Compound 25, (R)-1-acryloyl-N-(2-(4-(4-(2-amino-4-(difluoromethyl)pyrimidin-5-yl)-6-morpholino-1,3,5-triazin-2-yl)piperazin-1-yl)-2-oxoethyl)pyrrolidine-3-carboxamide], the kchem in test [1] was found to be 0.00062 M⁻¹ s⁻¹. Besides, in test [2], the kinact/KI is 961000 M⁻¹ s⁻¹, the pKi was 8.27 and the kinact worked out at 0.00514 s⁻¹. In addition, in test [3] (setting [6]), the pIC50 is 7.38.
In the case of `C=CC(=O)N1CCCC[C@@H]1C(=O)NCC(=O)N1CCN(c2nc(-c3cnc(N)nc3C(F)F)nc(N3CCOCC3)n2)CC1` [Compound 21, (R)-1-acryloyl-N-(2-(4-(4-(2-amino-4-(difluoromethyl)pyrimidin-5-yl)-6-morpholino-1,3,5-triazin-2-yl)piperazin-1-yl)-2-oxoethyl)piperidine-2-carboxamide], the kchem in test [1] is 0.00469 M⁻¹ s⁻¹. The kinact/KI in test [2] (PI3Kα, read-out: kinact/Ki) is 227000 M⁻¹ s⁻¹. In test [2], this molecule had a pKi of 8.41. Further, in test [2] (setting [4]), the kinact came to 0.000875 s⁻¹. Besides, the pIC50 in test [3] (setting [5]) was 7.05.
Taken in the same sequence, the figures for `C=CC(=O)N1CCC(COCC(=O)N2CCN(c3nc(-c4cnc(N)nc4C(F)F)nc(N4CCOCC4)n3)CC2)CC1` [Compound 46, 1-(4-((2-(4-(4-(2-amino-4-(difluoromethyl)pyrimidin-5-yl)-6-morpholino-1,3,5-triazin-2-yl)piperazin-1-yl)-2-oxoethoxy)methyl)piperidin-1-yl)prop-2-en-1-one] were 0.00029 M⁻¹ s⁻¹, 239000 M⁻¹ s⁻¹, 8.37, 0.00102 s⁻¹ and 7.64.
Taken in the same sequence, the figures for `C=CC(=O)N1CC[C@H](C(=O)NCC(=O)N2CCN(c3nc(-c4cnc(N)nc4C(F)F)nc(N4CCOCC4)n3)CC2)C1` [Compound 24, (S)-1-acryloyl-N-(2-(4-(4-(2-amino-4-(difluoromethyl)pyrimidin-5-yl)-6-morpholino-1,3,5-triazin-2-yl)piperazin-1-yl)-2-oxoethyl)pyrrolidine-3-carboxamide] were 0.00059 M⁻¹ s⁻¹, 311000 M⁻¹ s⁻¹, 8.08, 0.0026 s⁻¹ and 7.03.
The corresponding values for `C=CC(=O)N1CCC[C@@H]1C(=O)NCC(=O)N1CCN(c2nc(-c3cnc(N)nc3C(F)F)nc(N3CCOCC3)n2)CC1` [Compound 29, (R)-1-acryloyl-N-(2-(4-(4-(2-amino-4-(difluoromethyl)pyrimidin-5-yl)-6-morpholino-1,3,5-triazin-2-yl)piperazin-1-yl)-2-oxoethyl)pyrrolidine-2-carboxamide] are 0.0079 M⁻¹ s⁻¹, 40700 M⁻¹ s⁻¹, 8.17, 0.000275 s⁻¹ and 6.69.
`C=CC(=O)N1CC[C@@H](C(=O)N(C)CC(=O)N2CCN(c3nc(-c4cnc(N)nc4C(F)F)nc(N4CCOCC4)n3)CC2)C1` [Compound 27, (R)-1-acryloyl-N-(2-(4-(4-(2-amino-4-(difluoromethyl)pyrimidin-5-yl)-6-morpholino-1,3,5-triazin-2-yl)piperazin-1-yl)-2-oxoethyl)-N-methylpyrrolidine-3-carboxamide]: in test [1], the kchem was 0.00049 M⁻¹ s⁻¹. Moreover, in test [2] (PI3Kα, read-out: kinact/Ki), the kinact/KI came out at 531000 M⁻¹ s⁻¹. The pKi in test [2] was 8.22. Besides, in test [2] (setting [4]), the kinact is 0.0032 s⁻¹. Besides, in test [3] (setting [5]), the pIC50 was 7.19.
